Data from US20260055369A1, “METHOD FOR GENERATING CELLS OF THE T CELL LINEAGE WITH ENGINEERING BROADLY REACTIVE HUMAN NOTCH LIGAND” (H. Lee Moffitt Cancer Center and Research Institute, Inc., priority 2022, published 2026).

Tests used:
Notch1 [1] = assay: Notch inhibition assay with soluble antagonists and WT DLL4 coated plates (CHO-K1 N1-Gal4); type: cell-based; details: comparison with DAPT and BB-94, plates coated with 50 nM WT DLL4; FIG. 4B; read-out: IC50 for inhibition of Notch1 activation
Protocol: For CHO-K1 N1-Gal4 reporter cells, on day one, biotinylated WT DLL4 was pre-coated in 96-well plates at 50 nM following the same protocol described above. Next, CHO-K1 N1-Gal4 cells were detached with trypsin-EDTA, washed, and diluted at 200,000 cells/mL in α-MEM media. Ten-fold serial dilutions of non-biotinylated DLL4 ligands (N-EGF5) were prepared in DPBS starting at 600 nM. Next, soluble inhibitors were mixed in ratio 1:1 with CHO-K1 N1-Gal4 200,000 cells/mL stocks for 15 min at room temperature to pre-block Notch receptors. Two hundred microliters of inhibition reactions containing 20,000 reporter cells were added to WT DLL4-coated wells, and plates incubated for 24 hours at 37° C. and 5% CO2. When DAPT (gamma-secretase inhibitor, Sigma) and BB-94 (ADAM metalloprotease inhibitor, Sigma) were used, stock solutions were prepared at 100 μM in 8% DMSO. Appropriate DMSO controls were included to test Notch activation and cell viability. Final DMSO concentration in the experiment was kept below 1%. […] On day two, assay plates were washed with 200 μL of DPBS, CHO-K1 N1-Gal4 cells detached with trypsin-EDTA, quenched with 200 μL of α-MEM media, and Notch activation measured by flow cytometry (BD Accuri C6 Plus). […]

Notch1 [2] = assay: Notch inhibition assay in co-culture format (CHO-K1 N1-Gal4 with HEK293T expressing WT DLL4); type: cell-based; details: co-culture 1:1 with HEK293T expressing WT DLL4; read-out: IC50 for inhibition of Notch1 activation by cellular DLL4
Protocol: For inhibition of CHO-K1 N1-Gal4 cells with DAPT and Delta^MAX, the experiment was set-up following the protocol described above with the exception that CHO-K1 N1-Gal4 reporters were incubated with HEK293T-expressing WT DLL4 for Notch activation. Three-fold serial dilutions of soluble Delta^MAX and DAPT were prepared in DPBS starting at 6,000 nM. For DAPT, a stock solution of 100 μM in 8% DMSO was prepared before serial dilutions in DPBS. Appropriate DMSO controls were also assayed for cytotoxicity. Final DMSO concentration in the wells was maintained below 1%. Thirty thousand signal senders and pre-blocked signal receivers (100 μL each) were incubated for 24 hours at 37° C. and 5% CO2 before analysis by flow cytometry. Maximum Notch activation (100%) was set in the absence of soluble inhibitors and normalized to wells containing CHO-K1 N1-Gal4 cells and HEK293T lacking expression of WT DLL4. Mean fluorescence intensity is represented as percentage relative to Notch activation in the absence of inhibitors±s.d. of three independent biological replicates.

IC50 (Notch1 [1]) [nM]	IC50 (Notch1 [2]) [nM]	Compound
1000		CNC(=O)[C@H](Cc1ccccc1)NC(=O)[C@H](CC(C)C)[C@H](CSc1cccs1)C(=O)NO [BB-94, reference compound]
40	100	C[C@H](NC(=O)Cc1cc(F)cc(F)c1)C(=O)N[C@H](C(=O)OC(C)(C)C)c1ccccc1 [DAPT, reference compound]
